In patent US20090130707A1, “Methods of reducing the inhibitory effect of a redox active metal ion on the enzymatic hydrolysis of cellulosic material” (priority 2007, published 2009):
Read-outs that look alike come from different tables or passages of the source.

Assays:
[1] = system: Cellulolytic Enzyme Composition #2; assay: mini-plate-scale PCS hydrolysis by Cellulolytic Enzyme Composition #2 with H2O2 and ferric ion chelator; type: biochemical, Trichoderma reesei; settings: for Effect on the inhibition by ferrous ion: 2.5 mM FeSO4, 10 mM H2O2 for 30 minutes, 10 mM desferrioxamine
Procedure: However, prior to the addition of Cellulolytic Enzyme Composition #2, the mixture of PCS and FeSO4 was treated with 10 mM H2O2 for 30 minutes. In some cases, 10 mM desferrioxamine was also added. Reactions without the addition of FeSO4 or H2O2 served as controls.

[2] = system: Cellulolytic Enzyme Composition #1; assay: mini-plate-scale PASC hydrolysis by Cellulolytic Enzyme Composition #1; type: biochemical, Trichoderma reesei; settings: 10 mM; 2 g PASC and 0.01 g enzyme per liter
Procedure: (§1) Various (biologically common) divalent metal cations with variable ionic radii were tested in 2.8 ml Deep Well Microplates (VWR International, West Chester, Pa., USA) (“mini-plate-scale”) containing 1 ml suspensions of 25 g of AVICEL® per liter in 50 mM sodium acetate pH 5 at 50° C. Cellulolytic Enzyme Composition #1 was added at 0.25 g per liter for each hydrolysis. The mini-plates were sealed at 160° C. for 2 seconds using an ABGENE® ALPS 300™ sealer (ABgene, Rochester, N.Y., USA). The sealed mini-plates were incubated at 50° C. in an INNOVA® 4080 incubator shaker at 150 rpm. Soluble reducing sugars were measured by HPLC as described in Example 30.
In one series of “mini-scale” hydrolysis reactions performed according to the procedure described in Example 30, the effect of 1 mM to 10 mM FeSO4 was evaluated in the hydrolysis of AVICEL® by Cellulolytic Enzyme Composition #1. In a series of “mini-plate-scale” hydrolysis reactions performed according to the procedure described in Example 32, the effect of 1 mM to 10 mM FeSO4 was evaluated in the hydrolysis of PASC by Cellulolytic Enzyme Composition #1, except 2 g of PASC and 0.05 g Cellulolytic Enzyme Composition #1 per liter of 50 mM sodium acetate pH 5 were used.
The above study was extended to a range of concentration of Fe(II) and cellulose. In a series of “mini-plate-scale” hydrolysis reactions performed according to the procedure described in Example 32, except that 0.1 to 10 mM FeSO4, 0.6 to 4 g of PASC and 0.01 g of Cellulolytic Enzyme Composition #1 per liter of 50 mM sodium acetate pH 5 were used.

[3] = cited from earlier work; for Radius: ionic radii in crystals, 6-ligand coordination
[4] = system: Cellulolytic Enzyme Composition #1; assay: Pre-incubation of iron ion with AVICEL or enzyme, then AVICEL hydrolysis; type: biochemical, Trichoderma reesei
Procedure: To test whether Fe(II) affects cellulose or cellulase, 10 mM FeCl2 was pre-incubated with either 25 g of AVICEL® or 0.25 g of Cellulolytic Enzyme Composition #1 per liter of 50 mM sodium acetate pH 5 for three days. “Fe-pretreated” AVICEL® was washed and Cellulolytic Enzyme Composition #1 was gel-filtered using BioSpin 6 desalting columns (Bio-Rad, Hercules, Calif., USA) to remove residual Fe ion. Fe-pretreated AVICEL® was hydrolyzed with fresh Cellulolytic Enzyme Composition #1 or Cellulolytic Enzyme Composition #1 subjected to “FeCl2-less” pre-incubation and gel filtration. Fe-pretreated Cellulolytic Enzyme Composition #1 was applied to hydrolyze fresh AVICEL® or AVICEL® subjected to “FeCl2-less” pre-incubation and washing, in comparison with the hydrolysis of fresh AVICEL® ([…]) by fresh Cellulolytic Enzyme Composition #1 ([…]), with or without 10 mM FeCl2. All hydrolyses were performed using the “mini-plate-scale” hydrolysis reaction procedure described in Example 32, except for the change in cellulose or cellulase described above.
To test whether Fe(III) affected cellulose or cellulase, 10 mM FeCl3 was pre-incubated with either 25 g of AVICEL® or 0.25 g of Cellulolytic Enzyme Composition #1 per liter of 50 mM sodium acetate pH 5 for three days. All hydrolyses were performed using the “mini-plate-scale” hydrolysis reactions according to the procedure described in Example 32, except for the change in cellulose or cellulase described above.

[5] = system: Cellulolytic Enzyme Composition #1; assay: mini-plate-scale AVICEL hydrolysis by Cellulolytic Enzyme Composition #1; type: biochemical, Trichoderma reesei; settings: for Effect on enzymatic cellulolysis: loss in initial rate / Effect on enzymatic cellulolysis: loss in extended hydrolysis extent: 25 g AVICEL and 0.25 g enzyme per liter, pH 5, 50° C.; for Effect on enzymatic cellulolysis: loss in extended hydrolysis extent: after 4 days
Procedure: as §1
Iron-chelator complexes of variable size or redox property were tested for their ability to inhibit enzymatic hydrolysis of cellulose. […]

[6] = system: Cellulolytic Enzyme Composition #1; assay: Pre-incubation of iron ion with PASC or enzyme, then PASC hydrolysis; type: biochemical, Trichoderma reesei
Procedure: The “pre-incubation” study was also performed for the hydrolysis of PASC. The experiments were similar to those described above, except 2 g of PASC, replacing AVICEL®, and 0.01 g of Cellulolytic Enzyme Composition #1 per liter of 50 mM sodium acetate pH 5, and 3 days pre-incubation were used. All hydrolyses were performed using the “mini-plate-scale” hydrolysis reaction according to the procedure described in Example 32, except for the change in cellulose or cellulase described above.

[7] = system: Cellulolytic Enzyme Composition #2; assay: mini-scale PCS hydrolysis by Cellulolytic Enzyme Composition #2; type: biochemical, Trichoderma reesei; settings: 10 mM salt; 43.4 g PCS and 0.25 g enzyme per liter, 50 mM sodium acetate pH 5, 50° C.
Procedure: Corn stover was pretreated at the U.S. Department of Energy National Renewable Energy Laboratory (NREL), […], Colo., USA, using dilute sulfuric acid. The following conditions were used for the pretreatment: 1.4 wt % sulfuric acid at 195° C. for 4.5 minutes. According to limit digestion with excess cellulase enzymes, the water-insoluble solids in the pretreated corn stover (PCS) contained 59.5% cellulose. Prior to use, the PCS was washed with a large volume of deionized water until soluble acid and sugars were removed. The dry weight of the water-washed PCS was 19.16%.
The effect of various salts (FeSO4, FeCl2, NaCl, Na2SO4, MnSO4, MnCl2) was determined in the hydrolysis of PCS by Cellulolytic Enzyme Composition #2. […] Cellulolytic Enzyme Composition #2 was added at 0.25 g per liter. Reactions without the addition of the salt served as controls. The capped tubes were incubated at 50° C. in an INNOVA® 4080 incubator shaker (New Brunswick Scientific Co., Inc., Edison, N.J., USA) at 150 rpm.
(§2) Aliquots of the suspensions, sampled over time, were filtered by centrifugation using a 0.45 μm MULTISCREEN® HV membrane (Millipore, Billerica, Mass., USA) at 2000 rpm for 15 minutes using a SORVALL® RT7 centrifuge (Thermo Fisher Scientific, Waltham, Mass., USA). When not used immediately, the filtered sugary aliquots were frozen at −20° C. Sugar concentrations of the samples diluted in 0.005 M H2SO4 were measured after elution from a 4.6×250 mm AMINEX® HPX-87H column (Bio-Rad, Hercules, Calif., USA) by 0.005 M H2SO4 at a flow rate of 0.4 ml/minute at 65° C. with quantitation by integration of glucose and cellobiose using refractive index detection (CHEMSTATION®, AGILENT® 1100 HPLC, Agilent Technologies, Santa Clara, Calif., USA) calibrated with standards of glucose and cellobiose. The resultant equivalents were used to calculate the percentage of cellulose conversion for each reaction.
The degree of cellulose conversion to glucose plus cellobiose (% conversion) was calculated using the following equation:
% Conversion=(glucose+cellobiose×1.053)(mg/ml)×100×162/cellulose(mg/ml)×180)=(glucose+cellobiose×1.053)(mg/ml)×100/(cellulose(mg/ml)×1.111)
In this equation the factor 1.111 reflects the weight gain in converting cellulose to glucose, and the factor 1.053 reflects the weight gain in converting cellobiose to glucose. Cellulose in PCS was determined by a limit digest of PCS to release glucose and cellobiose.

[8] = system: Cellulolytic Enzyme Composition #1; assay: mini-scale PCS hydrolysis by Cellulolytic Enzyme Composition #1; type: biochemical, Trichoderma reesei; settings: for cellobiose level in the hydrolysis products versus absence of the compounds: PCS hydrolysis; for Effect of chelator on enzyme in the absence of FeSO4: PCS hydrolysis (FIGS. 23A-23D)
Procedure: The effect of various salts (FeSO4, FeCl2, NaCl, Na2SO4, MnSO4, MnCl2) was determined in the hydrolysis of PCS by Cellulolytic Enzyme Composition #2. The PCS hydrolysis was performed in duplicate in capped 1.7 ml EPPENDORF® tubes (“mini-scale”) containing 1 ml suspensions of 43.4 g of PCS (dry weight) per liter, 10 mM salts in 50 mM sodium acetate pH 5. Cellulolytic Enzyme Composition #2 was added at 0.25 g per liter. Reactions without the addition of the salt served as controls. The capped tubes were incubated at 50° C. in an INNOVA® 4080 incubator shaker (New Brunswick Scientific Co., Inc., Edison, N.J., USA) at 150 rpm.
as §2
Example 30 was repeated with both Cellulolytic Enzyme Composition #1 and Cellulolytic Enzyme Composition #2. Soluble reducing sugars were measured by HPLC as described in Example 30. Reactions without the addition of FeSO4 served as controls.
The hydrolysis was performed in a series of duplicate “mini-scale” hydrolysis reactions according to the procedure described in Example 30.

[9] = 10 mM fresh salt, fresh AVICEL, fresh enzyme
[10] = 10 mM, pre-incubated three days with AVICEL
[11] = 10 mM, pre-incubated three days with Cellulolytic Enzyme Composition #1
[12] = fresh salt, PASC, enzyme fresh or buffer pre-incubated
[13] = pre-incubated 3 days with Cellulolytic Enzyme Composition #1

Which results are given for `OO` [H2O2, Hydrogen peroxide]?
Effect on the inhibition by ferrous ion [1]: reduced the inhibitory effect; Effect on hydrolysis in the absence of Fe(II) ([1]; 10 mM H2O2 with or without 10 mM desferrioxamine (FIG. 22B)): only affected the hydrolysis slightly

Which “Effect on the inhibition by ferrous ion” value [1] does the source give for `CC(=O)N(O)CCCCCNC(=O)CCC(=O)N(O)CCCCCNC(=O)CCC(=O)N(O)CCCCCN` [desferrioxamine] here?
Its value is “mitigated almost all”.

What about the “increase in hydrolysis extent” value ([1]; 10 mM, alone) of the same compound?
Its value is “approximately 2%”.

What does the source list for `[Cl][Fe]([Cl])[Cl]` [Fe(III), FeCl3]?
loss of extent of hydrolysis after 4 days [2]: ~80%; loss of initial hydrolysis rate [2]: ~80%; Radius [3]: 0.55 Å; E° ([3]; single-electron redox potential vs NHE): 0.771 V; loss in extent of hydrolysis [4, 9]: ~90%; loss in initial rate [4, 9]: ~90%; loss in extent of hydrolysis [4, 10]: ~80%; loss in initial rate [4, 10]: ~80%; loss in extent of hydrolysis [4, 11]: ~20%; loss in initial rate [4, 11]: ~20%; Effect on enzymatic cellulolysis: loss in initial rate ([5]; 10 mM): ~90% loss in initial rate, ~90% loss in extended hydrolysis extent; Effect on enzymatic cellulolysis: loss in extended hydrolysis extent ([5]; 10 mM): ~90% loss in initial rate, ~90% loss in extended hydrolysis extent; Effect on enzymatic cellulolysis: loss in extended hydrolysis extent ([5]; 10 mM, listed as FeCl3): ~90%; Effect on enzymatic cellulolysis: loss in initial rate ([5]; 10 mM, listed as FeCl3): ~90%; IC50 ([5]; AVICEL hydrolysis, 0.2 to 2 mM inhibitor, read-out: I50): 500 ± 400 µM; loss in extent of hydrolysis [6, 12]: approximately 30%; loss in initial rate [6, 12]: ~70%; loss in extent of hydrolysis [6, 13]: no loss; loss in initial rate [6, 13]: ~50%; loss in extent of hydrolysis ([6]; pre-incubated 3 days with PASC): ~10%; loss in initial rate ([6]; pre-incubated 3 days with PASC): ~50%

Which results are given for `[Cl][Fe][Cl]` [FeCl2, ferrous chloride]?
loss of extent of hydrolysis after 4 days [2]: ~30%; loss of initial hydrolysis rate [2]: ~30%; Effect on PCS hydrolysis [7]: significant inhibition; loss in extent of hydrolysis [4, 9]: ~50%; loss in initial rate [4, 9]: ~50%; loss in extent of hydrolysis [4, 10]: ~10%; loss in initial rate [4, 10]: ~10%; loss in extent of hydrolysis [4, 11]: ~20%; loss in initial rate [4, 11]: ~20%; loss in extent of hydrolysis [6, 12]: no loss; loss in initial rate [6, 12]: approximately 30%; loss in extent of hydrolysis [6, 13]: no loss; loss in initial rate [6, 13]: ~70%; loss in extent of hydrolysis ([6]; pre-incubated 3 days with PASC): no loss; loss in initial rate ([6]; pre-incubated 3 days with PASC): ~60%

What does the source list for `O=C([O-])CC(O)(CC(=O)[O-])C(=O)[O-].[Fe+3]` [Fe(III)-citrate, Fe-citrate]?
E° ([3]; single-electron oxidation potential of iron-chelator complexes): −0.191^2 V; Effect on enzymatic cellulolysis: loss in initial rate ([5]; 10 mM): No significant change; Effect on enzymatic cellulolysis: loss in extended hydrolysis extent ([5]; 10 mM): no change; Effect on hydrolysis of PCS ([1]; 1 and 10 mM): did not affect

For `c1cnc2c(c1)ccc1ncccc12` [1,7-Phenanthroline], which “cellobiose level in the hydrolysis products versus absence of the compounds” value [8] is on record?
The value was “about twice”.

What about the “Effect of chelator on enzyme in the absence of FeSO4” value [8] of the same compound?
The value was “essentially benign”.

Which results are given for `O=S(=O)([O-])[O-].[Co+2]` [Co(II), CoSO4]?
E° ([3]; 2-electron E° (in parenthesis)): (−0.28) V; Radius [3]: 0.65 Å; Effect on hydrolysis (in words) ([5]; 10 mM): slight or moderate inhibition; Effect on enzymatic cellulolysis: loss in initial rate ([5]; 10 mM): ~10%; Effect on enzymatic cellulolysis: loss in extended hydrolysis extent ([5]; 10 mM): no change

Which “cellobiose level in the hydrolysis products versus absence of the compounds” value [8] does the source give for `c1cnc2c(c1)ccc1cccnc12` [1,10-phenanthroline] here?
The value was “about twice”.

And the “Effect of chelator on enzyme in the absence of FeSO4” value [8]?
The value was “significant inhibition”.
